Molecular target: L-aminoadipate-semialdehyde dehydrogenase-phosphopantetheinyl transferase (Homo sapiens) (UniProt Q9NRN7)
Assay: PubChem AID 378
Details: purified protein DSF, SYPRO orange Tm shift, at 10 µM, protein 2 µM, pH 5.5, stronger effect = higher value
[1] = buffer 10 mM NaH2PO4, NaCl 150 mM, MgCl2 2000 µM
[2] = buffer 10 mM NaHPO4, with 150 mM NaCl, 2 mM MgCl2

Chain of L-aminoadipate-semialdehyde dehydrogenase-phosphopantetheinyl transferase (Homo sapiens) (Q9NRN7 whole entry, looked up): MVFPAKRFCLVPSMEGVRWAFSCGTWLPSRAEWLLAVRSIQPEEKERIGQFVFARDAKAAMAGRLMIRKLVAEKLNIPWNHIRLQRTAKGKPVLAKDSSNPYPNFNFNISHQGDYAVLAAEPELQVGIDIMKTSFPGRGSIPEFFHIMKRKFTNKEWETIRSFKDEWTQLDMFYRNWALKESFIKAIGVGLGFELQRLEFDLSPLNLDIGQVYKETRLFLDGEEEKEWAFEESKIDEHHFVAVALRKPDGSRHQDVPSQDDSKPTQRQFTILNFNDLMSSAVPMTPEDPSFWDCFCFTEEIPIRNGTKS

Row | SMILES | Tm shift [1] [Celsius] | Tm shift [2] [Celsius]
1 | CC(O)CC(=O)SCCNC(=O)CCNC(=O)C(O)C(C)(C)COP(=O)(O)OP(=O)(O)OCC1OC(n2cnc3c(N)ncnc32)C(O)C1OP(=O)(O)O (centres undefined) | 3.1 | 
2 | CC(C)(COP(=O)(O)OP(=O)(O)OCC1OC(n2cnc3c(N)ncnc32)C(O)C1OP(=O)(O)O)C(O)C(=O)NCCC(=O)NCCS (centres undefined) | 2.9 | 
3 | O=P(O)(O)C(O)(Cn1ccnc1)P(=O)(O)O |  | 5.2
4 | O=[P+](O)C(O)(Cc1cccnc1)P(=O)(O)O (centres undefined) |  | 4.4
